{"source": "patent US5385842A", "about": "“Anthraquinones as inhibitors of sulfide production from sulfate-reducing bacteria” (E. I. Du Pont de Nemours and Company, priority 1993, dated 1995)", "type_in_all_cases": "cell-based", "key": {"[1]": {"test_system": "Desulfovibrio desulfuricans G100A", "assay": "microbe, parasite or virus in culture", "details": "Desulfovibrio desulfuricans, G100A, read-out: % Inhib. (inhibition of sulfide production)"}, "[2]": {"test_system": "D. desulfuricans G100A", "assay": "Growth of different sulfate-reducers with 1,8-dihydroxyanthraquinone (Example 6)", "details": "3 ppm, 40 hours; control >1.5", "protocol": "(§1) Growth was monitored as optical density at 660 nm for 40 hours."}, "[3]": {"test_system": "D. desulfuricans G100A", "assay": "Effect of dithionite-reduced anthraquinones on growth of D. desulfuricans G100A", "protocol": "Three anthraquinones, 1,8-dihydroxy-, 1-chloro-, and 3-chloro-2-carboxy- were prepared as 1 ml of 1000 ppm solutions in acetone for the first two compounds or water for the third. These solutions were then treated with 1 mg of the strong reducing agent, sodium dithionite. 50 ul of each solution (for a final culture concentration of 5 ppm) was used immediately to treat growing cultures of D. desulfuricans G100A in BTZ-3 medium as defined in Example 1. The compounds were added to the 10 ml cultures at 15 h of growth."}, "[4]": {"test_system": "D. multispirans", "assay": "Growth of different sulfate-reducers with 1,8-dihydroxyanthraquinone (Example 5)", "details": "3 ppm, 40 hours; control >1.5", "protocol": "as §1"}, "[5]": {"test_system": "D. desulfuricans #ATCC27774", "assay": "Rate of hydrogen utilization in the presence of different electron acceptors", "description": "The following experiments show the effect of the 1,8-dihydroxy-anthraquinone on the rate of hydrogen utilization by bacteria in the presence of different electron acceptors."}, "[6]": {"test_system": "D. desulfuricans G100A", "assay": "Growth of D. desulfuricans G100A after addition of inhibitor at 12 h", "protocol": "Four 10 ml culture tubes of BTZ-3 medium as defined in Example 1 supplemented with sodium lactate (40 mM) and sodium sulfate (30 mM) and 0.5 ml of reducing agent were inoculated with 100 ul of a fully grown suspension of D. desulfuricans G100A. The culture was allowed to grow and the optical density at 660 nm was monitored until the cells entered into exponential growth (approx. 12-15 h, O.D. 660=0.1-0.2). At this time 100 ul of a 300 ppm solution of 1,8 dihydroxyanthraquinone, 1-chloranthraquinone or 3-chloro-2-anthraquinone carboxylic acid, respectively, was added to one of the tubes. The ethanol:water (80:20) solvent (100 μl ) was added to the fourth tube to serve as an uninhibited control.\n#3 ppm inhibitor added at 12 hours"}, "[7]": {"test_system": "D. salexigens", "assay": "Growth of different sulfate-reducers with 1,8-dihydroxyanthraquinone (Example 8)", "details": "3 ppm, 40 hours; control >1.5", "protocol": "as §1"}, "[8]": {"test_system": "D. vulgaris", "assay": "Growth of different sulfate-reducers with 1,8-dihydroxyanthraquinone (Example 10)", "details": "3 ppm, 40 hours; control .20", "protocol": "as §1"}, "[9]": {"test_system": "D. desulfuricans Norway", "assay": "Growth of different sulfate-reducers with 1,8-dihydroxyanthraquinone (Example 7)", "details": "3 ppm, 40 hours; control .30", "protocol": "as §1"}}, "data": [{"compound": "O=C1c2cccc(O)c2C(=O)c2c(O)cccc21", "note": "[1,8-Dihydroxyanthraquinone]", "values": [{"measurement": "inhibition at 10 ppm", "setting": "[1]", "result": 82.2, "unit": "%"}, {"measurement": "Optical Density @ 660 nm, treated", "setting": "[2]", "result": ".20"}, {"measurement": "Optical Density @ 660 nm", "setting": "[3]; 0 h, before addition of 5 ppm dithionite-reduced compound at 15 h, control 0.02", "result": 0.02}, {"measurement": "Optical Density @ 660 nm", "setting": "[3]; 2 h, before addition of 5 ppm dithionite-reduced compound at 15 h, control 0.02", "result": 0.02}, {"measurement": "Optical Density @ 660 nm", "setting": "[3]; 12 h, before addition of 5 ppm dithionite-reduced compound at 15 h, control 0.08", "result": 0.10}, {"measurement": "Optical Density @ 660 nm", "setting": "[3]; 15 h, time of addition of 5 ppm dithionite-reduced compound, control 0.18", "result": 0.2}, {"measurement": "Optical Density @ 660 nm", "setting": "[3]; 17 h, 5 ppm dithionite-reduced compound added at 15 h, control 0.26", "result": 0.24}, {"measurement": "Optical Density @ 660 nm", "setting": "[3]; 20 h, 5 ppm dithionite-reduced compound added at 15 h, control 0.37", "result": 0.23}, {"measurement": "Optical Density @ 660 nm", "setting": "[3]; 25 h, 5 ppm dithionite-reduced compound added at 15 h, control 0.50", "result": 0.22}, {"measurement": "Optical Density @ 660 nm", "setting": "[3]; 30 h, 5 ppm dithionite-reduced compound added at 15 h, control 0.98", "result": 0.23}, {"measurement": "Optical Density @ 660 nm", "setting": "[3]; 45 h, 5 ppm dithionite-reduced compound added at 15 h, control 1.50", "result": 0.25}, {"measurement": "Optical Density @ 660 nm, treated", "setting": "[4]", "result": ".28"}, {"measurement": "Hydrogen", "setting": "[5]; Fumarate as electron acceptor, 3 ppm, 0 min, control 0", "result": 0, "unit": "µL"}, {"measurement": "Hydrogen", "setting": "[5]; Fumarate as electron acceptor, 3 ppm, 10 min, control 9", "result": 8, "unit": "µL"}, {"measurement": "Hydrogen", "setting": "[5]; Fumarate as electron acceptor, 3 ppm, 25 min, control 23", "result": 25, "unit": "µL"}, {"measurement": "Hydrogen", "setting": "[5]; Fumarate as electron acceptor, 3 ppm, 40 min, control 47", "result": 48, "unit": "µL"}, {"measurement": "Hydrogen", "setting": "[5]; Fumarate as electron acceptor, 3 ppm, 55 min, control 70", "result": 74, "unit": "µL"}, {"measurement": "Hydrogen", "setting": "[5]; Fumarate as electron acceptor, 3 ppm, 70 min, control 95", "result": 101, "unit": "µL"}, {"measurement": "Hydrogen", "setting": "[5]; Sulfate as electron acceptor, 3 ppm, 0 min, control 0", "result": 0, "unit": "µL"}, {"measurement": "Hydrogen", "setting": "[5]; Sulfate as electron acceptor, 3 ppm, 10 min, control 15", "result": 3, "unit": "µL"}, {"measurement": "Hydrogen", "setting": "[5]; Sulfate as electron acceptor, 3 ppm, 25 min, control 44", "result": 14, "unit": "µL"}, {"measurement": "Hydrogen", "setting": "[5]; Sulfate as electron acceptor, 3 ppm, 40 min, control 76", "result": 21, "unit": "µL"}, {"measurement": "Hydrogen", "setting": "[5]; Sulfate as electron acceptor, 3 ppm, 55 min, control 107", "result": 28, "unit": "µL"}, {"measurement": "Hydrogen", "setting": "[5]; Sulfate as electron acceptor, 3 ppm, 70 min, control 152", "result": 38, "unit": "µL"}, {"measurement": "Hydrogen", "setting": "[5]; Sulfate as electron acceptor, 3 ppm, 85 min, control 208", "result": 45, "unit": "µL"}, {"measurement": "Hydrogen", "setting": "[5]; Sulfate as electron acceptor, 3 ppm, 100 min, control 266", "result": 56, "unit": "µL"}, {"measurement": "Hydrogen", "setting": "[5]; Sulfate as electron acceptor, 3 ppm, 115 min, control 336", "result": 74, "unit": "µL"}, {"measurement": "Hydrogen", "setting": "[5]; Sulfite as electron acceptor, 3 ppm, 0 min, control 0", "result": 0, "unit": "µL"}, {"measurement": "Hydrogen", "setting": "[5]; Sulfite as electron acceptor, 3 ppm, 6 min, control 7", "result": 7, "unit": "µL"}, {"measurement": "Hydrogen", "setting": "[5]; Sulfite as electron acceptor, 3 ppm, 16 min, control 26", "result": 25, "unit": "µL"}, {"measurement": "Hydrogen", "setting": "[5]; Sulfite as electron acceptor, 3 ppm, 26 min, control 45", "result": 43, "unit": "µL"}, {"measurement": "Hydrogen", "setting": "[5]; Sulfite as electron acceptor, 3 ppm, 59 min, control 139", "result": 141, "unit": "µL"}, {"measurement": "Hydrogen", "setting": "[5]; Sulfite as electron acceptor, 3 ppm, 71 min, control 179", "result": 183, "unit": "µL"}, {"measurement": "Hydrogen", "setting": "[5]; Thiosulfate as electron acceptor, +6 ppm, 0 min, control 0", "result": 0, "unit": "µL"}, {"measurement": "Hydrogen", "setting": "[5]; Thiosulfate as electron acceptor, +6 ppm, 11 min, control 38", "result": 33, "unit": "µL"}, {"measurement": "Hydrogen", "setting": "[5]; Thiosulfate as electron acceptor, +6 ppm, 21 min, control 90", "result": 73, "unit": "µL"}, {"measurement": "Hydrogen", "setting": "[5]; Thiosulfate as electron acceptor, +6 ppm, 31 min, control 144", "result": 118, "unit": "µL"}, {"measurement": "Hydrogen", "setting": "[5]; Thiosulfate as electron acceptor, +6 ppm, 41 min, control 204", "result": 176, "unit": "µL"}, {"measurement": "optical density reading at 660 nm", "setting": "[6]; 0 h of growth, before addition of 3 ppm inhibitor at 12 h", "result": ".01"}, {"measurement": "optical density reading at 660 nm", "setting": "[6]; 10 h of growth, before addition of 3 ppm inhibitor at 12 h", "result": ".12"}, {"measurement": "optical density reading at 660 nm", "setting": "[6]; 12 h of growth, 3 ppm inhibitor added at 12 h", "result": ".20"}, {"measurement": "optical density reading at 660 nm", "setting": "[6]; 14 h of growth, 3 ppm inhibitor added at 12 h", "result": ".19"}, {"measurement": "optical density reading at 660 nm", "setting": "[6]; 18 h of growth, 3 ppm inhibitor added at 12 h", "result": ".16"}, {"measurement": "optical density reading at 660 nm", "setting": "[6]; 20 h of growth, 3 ppm inhibitor added at 12 h", "result": ".16"}, {"measurement": "optical density reading at 660 nm", "setting": "[6]; 24 h of growth, 3 ppm inhibitor added at 12 h", "result": ".16"}, {"measurement": "optical density reading at 660 nm", "setting": "[6]; 29 h of growth, 3 ppm inhibitor added at 12 h", "result": ".18"}, {"measurement": "optical density reading at 660 nm", "setting": "[6]; 34 h of growth, 3 ppm inhibitor added at 12 h", "result": ".18"}, {"measurement": "optical density reading at 660 nm", "setting": "[6]; 62 h of growth, 3 ppm inhibitor added at 12 h", "result": ".30"}, {"measurement": "optical density reading at 660 nm", "setting": "[6]; 92 h of growth, 3 ppm inhibitor added at 12 h", "result": ".28"}, {"measurement": "Optical Density @ 660 nm, treated", "setting": "[7]", "result": ".06"}, {"measurement": "Optical Density @ 660 nm, treated", "setting": "[8]", "result": ".05"}, {"measurement": "Optical Density @ 660 nm, treated", "setting": "[9]", "result": ".09"}]}]}
